Article PMC9024521, “4-Heteroaryl Substituted Amino-3,5-Dicyanopyridines as New Adenosine Receptor Ligands: Novel Insights on Structure-Activity Relationships and Perspectives” (Pharmaceuticals, 2022)

Assays:
hA1AR [1] = target: T1, hA1AR (Homo sapiens, UniProt P30542); assay: Competition binding, [3H]DPCPX, hA1 CHO cell membranes; settings: displacement of [3H]DPCPX, hA1 CHO cells; mean ± SEM of four assays
T1 construct: host or cells: CHO cells
T1 sequence (P30542 1-326): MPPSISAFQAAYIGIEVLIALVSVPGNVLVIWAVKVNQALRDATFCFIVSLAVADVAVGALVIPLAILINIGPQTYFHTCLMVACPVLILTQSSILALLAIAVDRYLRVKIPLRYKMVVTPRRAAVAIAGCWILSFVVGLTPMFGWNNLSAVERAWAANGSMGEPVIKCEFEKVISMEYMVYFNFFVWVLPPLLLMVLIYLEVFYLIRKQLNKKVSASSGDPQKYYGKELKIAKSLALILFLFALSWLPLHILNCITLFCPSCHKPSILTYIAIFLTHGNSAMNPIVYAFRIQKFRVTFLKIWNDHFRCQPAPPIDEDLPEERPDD
Method: (§1) CHO cells transfected with hA1, hA2A, hA2B and hA3 ARs (Perkin Elmer, Boston, MA, USA) were grown adherently and maintained in Dulbecco’s modified Eagle’s medium with nutrient mixture F12, containing 10% fetal calf serum, penicillin (100 U/mL), streptomycin (100 μg/mL), L-glutamine (2 mM) and geneticine (G418; 0.2 mg/mL), at 37 °C, in 5% CO2/95% air, until their use in cAMP assays. For membrane preparation, the culture medium was removed, and the cells were washed with phosphate-buffered saline and scraped off T75 flasks in ice-cold hypotonic buffer (5 mM Tris HCl, 1 mM EDTA, pH 7.4). The cell suspension was homogenized with a Polytron, centrifuged for 30 min at 40,000× g, at 4 °C, and the resulting membrane pellet was used for competition binding experiments.
(§2) All synthesized compounds were tested for their affinity to hA1, hA2A and hA3 ARs. Competition experiments to hA1AR were carried out by incubating 1 nM [^3H]-8-cyclopentyl-1,3-dipropylxanthine ([^3H]-DPCPX) with membrane suspension (50 μg of protein/100 μL) and different concentrations of the examined compounds at 25 °C for 90 min in 50 mM Tris HCl, pH 7.4. Non-specific binding was defined as binding in the presence of 1 μM DPCPX and was always <10% of the total binding. Inhibition experiments to hA2A ARs were performed by incubating the radioligand [^3H]-4-(-2-[7-amino-2-{2-furyl}{1,2,4}triazolo{2,3-a} {1,3,5}triazin-5-yl-amino]ethyl)phenol ([^3H]-ZM241385) (1 nM) with the membrane suspension (50 μg of protein/100 μL) and different concentrations of the examined compounds for 60 min, at 4 °C, in 50 mM Tris HCl (pH 7.4), 10 mM MgCl2. Non-specific binding was determined in the presence of ZM241385 (1 μM) and was about 20% of the total binding. Competition binding experiments to A3ARs were carried out by incubating the membrane suspension (50 μg of protein/100 μL) with 0.5 nM [^125I]-N6-(4-aminobenzyl)-N-methylcarboxamidoadenosine ([^125I]-ABMECA) in the presence of different concentrations of the examined compounds for an incubation time of 120 min, at 4 °C, in 50 mM Tris HCl (pH 7.4), 10 mM MgCl2, 1 mM EDTA. Non-specific binding was defined as binding in the presence of 1 μM ABMECA and was always <10% of the total binding. Bound and free radioactivity were separated by filtering the assay mixture through Whatman GF/B glass-fiber filters, using a Brandel cell harvester (Brandel Instruments, Unterföhring, Germany). The filter bound radioactivity was counted by Packard Tri Carb 2810 TR scintillation counter (Perkin Elmer).
(§3) The protein concentration was determined according to a Bio-Rad method, with bovine albumin as a standard reference. Inhibitory binding constant (Ki) values were calculated from those of IC50 according to the Cheng–Prusoff equation, Ki = IC50/(1 + [C*]/KD*), where [C*] is the concentration of the radioligand, and KD* its dissociation constant. Ki and IC50 values were calculated by non-linear regression analysis, using the equation for a sigmoid concentration-response curve (Graph-PAD Prism, San Diego, CA, USA).

hA2AAR = target: T2, hA2AAR (Homo sapiens, UniProt P29274); assay: Competition binding, [3H]ZM241385, hA2A CHO cell membranes; settings: displacement of [3H]ZM241385, hA2A CHO cells; mean ± SEM of four assays
T2 construct: host or cells: CHO cells
Method: as §1, §2, §3

hA3AR = target: T3, hA3AR (Homo sapiens, UniProt P0DMS8); assay: Competition binding, [125I]AB-MECA, hA3 CHO cell membranes; settings: for Ki: displacement of [125I]AB-MECA, hA3 CHO cells, mean ± SEM of four assays; for inhibition at 1 µM: 1 µM compound, [125I]AB-MECA binding, read-out: I% hA3 (percentage of inhibition)
T3 construct: host or cells: CHO cells
T3 sequence (P0DMS8 1-318): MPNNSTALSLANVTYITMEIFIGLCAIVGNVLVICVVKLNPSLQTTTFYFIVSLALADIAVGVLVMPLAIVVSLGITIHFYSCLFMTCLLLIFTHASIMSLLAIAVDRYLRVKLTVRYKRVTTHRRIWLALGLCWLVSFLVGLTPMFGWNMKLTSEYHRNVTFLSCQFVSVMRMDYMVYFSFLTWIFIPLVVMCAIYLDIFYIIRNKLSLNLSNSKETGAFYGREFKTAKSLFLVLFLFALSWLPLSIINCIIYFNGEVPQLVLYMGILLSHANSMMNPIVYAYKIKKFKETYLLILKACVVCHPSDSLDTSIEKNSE
Method: as §1, §2, §3

hA2B AR = target: T4, hA2B AR (Homo sapiens, UniProt P29275); assay: cAMP assay in CHO cells expressing hA2B AR (stimulation of cAMP production); format: cell-based; settings: for Emax at 1 µM: CHO, 1 µM compound, in comparison with NECA (1 µM = 100%), read-out: Efficacy hA2B (cAMP assay) (converted); for EC50: hA2B CHO cells, mean ± SEM of four assays
T4 construct: host or cells: CHO cells
T4 sequence (P29275 1-332): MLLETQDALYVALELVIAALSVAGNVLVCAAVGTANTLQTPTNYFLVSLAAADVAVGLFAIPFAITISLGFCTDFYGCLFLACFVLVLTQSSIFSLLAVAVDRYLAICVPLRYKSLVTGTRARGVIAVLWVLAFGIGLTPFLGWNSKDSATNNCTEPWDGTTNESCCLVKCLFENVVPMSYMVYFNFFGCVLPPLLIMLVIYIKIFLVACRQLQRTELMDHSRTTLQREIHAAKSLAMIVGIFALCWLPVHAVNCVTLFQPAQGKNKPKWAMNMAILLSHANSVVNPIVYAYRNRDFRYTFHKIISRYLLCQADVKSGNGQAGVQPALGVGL
Method: (§4) The amino-3,5-dicyanopyridines 1–21 were tested for their affinity at hA1, hA2A and hA3 ARs, stably transfected in Chinese Hamster Ovary (CHO) cells. Moreover, they were also studied as hA2B agonists by evaluating their stimulatory effect on cAMP production in CHO cells, stably expressing the hA2B AR. […] Due to their interesting pan profile, both compounds 1 and 5 were evaluated as AR agonists also at the hA2A and hA3 subtypes.
as §1
(§5) CHO cells transfected with hAR subtypes were washed with phosphate-buffered saline, detached with tripsine and centrifuged for 10 min at 200× g. Cells were seeded in a 96-well white half-area microplate (Perkin Elmer, Boston, USA) in a stimulation buffer composed of Hank Balanced Salt Solution, 5 mM HEPES, 0.5 mM Ro 20–1724, 0.1% BSA. The cAMP levels were then quantified by using the AlphaScreen cAMP Detection Kit (Perkin Elmer, Boston, MA, USA), following the manufacturer’s instructions. At the end of the experiments, the plates were read with a Perkin Elmer EnSight Multimode Plate Reader.

hA1AR [2] = target: T1, hA1AR; assay: Modulation of Forskolin-stimulated cAMP levels in hA1 CHO cells; format: cell-based
Method: as §4, §1, §5

T2 sequence (P29274 whole entry): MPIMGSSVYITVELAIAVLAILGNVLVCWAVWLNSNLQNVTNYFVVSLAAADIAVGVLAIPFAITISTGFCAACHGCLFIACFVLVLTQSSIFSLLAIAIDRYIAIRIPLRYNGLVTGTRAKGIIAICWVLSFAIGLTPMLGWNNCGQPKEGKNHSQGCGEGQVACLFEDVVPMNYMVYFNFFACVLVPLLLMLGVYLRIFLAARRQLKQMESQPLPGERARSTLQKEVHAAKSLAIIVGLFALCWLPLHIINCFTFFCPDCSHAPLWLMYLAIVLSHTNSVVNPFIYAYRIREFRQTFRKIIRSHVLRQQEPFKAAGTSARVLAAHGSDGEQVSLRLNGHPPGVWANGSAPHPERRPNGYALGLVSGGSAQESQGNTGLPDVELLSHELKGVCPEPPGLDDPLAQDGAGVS

| Structure (SMILES) | Ki (hA1AR [1]) [nM] | Ki (hA2AAR) [nM] | Ki (hA3AR) [nM] | Emax at 1 µM (hA2B AR) [%] | EC50 (hA2B AR) [nM] | melting point | inhibition at 1 µM (hA3AR) [%] | EC50 (hA1AR [2]; footnote c, mean ± SEM of four experiments, read-out: hA1AR EC50 or IC50, potency to modulate Forskolin-stimulated cAMP levels) [nM] | hA1AR Efficacy (hA1AR [2]; normalized: CCPA full agonist = 100%, DPCPX inverse agonist = −100%) [%] | hA1AR Profile (hA1AR [2]; pharmacological profile in cAMP assay) |
| --- | --- | --- | --- | --- | --- | --- | --- | --- | --- | --- |
| Br.N#Cc1c(N)nc(SCc2ncc[nH]2)c(C#N)c1-c1ccc(CO)o1 [Compound 2, 2-Amino-4-[5-(hydroxymethyl)furan-2-yl]-6-[(1H-imidazol-2-ylmethyl)sulfanyl]pyridine-3,5-dicarbonitrile hydrobromide] | 190 ± 16 | 233 ± 19 | 290 ± 23 | 8 | > 1000 | 293 to 294 °C | – | – | – | – |
| N#Cc1c(N)nc(SCc2ncc[nH]2)c(C#N)c1-c1ccc(O)nc1 [Compound 10, 2′-Amino-6-hydroxy-6′-[(1H-imidazol-2-ylmethyl)sulfanyl]-3,4′-bipyridine-3′,5′-dicarbonitrile] | 149 ± 11 | 613 ± 53 | – | 1 | > 1000 | – | 23 | – | – | – |
| N#Cc1c(N)nc(NCCc2c[nH]cn2)c(C#N)c1-c1ccco1 [Compound 13, 2-Amino-4-(furan-2-yl)-6-{[2-(1H-imidazol-4-yl)ethyl]amino}pyridine-3,5-dicarbonitrile] | 174 ± 14 | 125 ± 10 | – | 9 | > 1000 | 242 °C (dec.) | 6 | – | – | – |
| N#Cc1c(N)nc(SCC(=O)NCc2ncc[nH]2)c(C#N)c1-c1ccco1 [Compound 14, 2-{[6-Amino-3,5-dicyano-4-(furan-2-yl)pyridin-2-yl]sulfanyl}-N-(1H-imidazol-2-ylmethyl)acetamide] | 87 ± 7 | 817 ± 71 | – | 6 | > 1000 | – | 33 | – | – | – |
| N#Cc1c(N)nc(SCc2csc(C(=O)NCCc3cnc[nH]3)n2)c(C#N)c1-c1ccco1 [Compound 17, 4-({[6-Amino-3,5-dicyano-4-(furan-2-yl)pyridin-2-yl]sulfanyl}methyl)-N-[2-(1H-imidazol-5-yl)ethyl]-1,3-thiazole-2-carboxamide] | 33 ± 3 | 279 ± 22 | 542 ± 48 | 6 | > 1000 | – | – | 38 ± 3 | 54 ± 4 | Partial Agonist |
| CC(=O)Nc1nc(SCc2ncc[nH]2)c(C#N)c(-c2ccco2)c1C#N [Compound 21, N-{3,5-dicyano-4-(furan-2-yl)-6-[(1H-imidazol-2-ylmethyl)sulfanyl]pyridin-2-yl}acetamide] | 34 ± 3 | 394 ± 27 | 768 ± 63 | 1 | > 1000 | – | – | – | – | – |

These reach a lower Ki (hA1AR [1]). Values come first.

| Ki (hA1AR [1]) [nM] | Ki (hA2AAR) [nM] | Ki (hA3AR) [nM] | Emax at 1 µM (hA2B AR) [%] | EC50 (hA2B AR) [nM] | melting point | inhibition at 1 µM (hA3AR) [%] | EC50 (hA1AR [2]; footnote c, mean ± SEM of four experiments, read-out: hA1AR EC50 or IC50, potency to modulate Forskolin-stimulated cAMP levels) [nM] | hA1AR Efficacy (hA1AR [2]; normalized: CCPA full agonist = 100%, DPCPX inverse agonist = −100%) [%] | hA1AR Profile (hA1AR [2]; pharmacological profile in cAMP assay) | Structure (SMILES) |
| --- | --- | --- | --- | --- | --- | --- | --- | --- | --- | --- |
| 10.1 ± 0.8 | 10.5 ± 0.9 | 279 ± 21 | 1 | > 1000 | – | – | – | – | – | Cc1ccc(-c2c(C#N)c(N)nc(SCc3ncc[nH]3)c2C#N)o1 [Compound 3, 2-Amino-6-[(1H-imidazol-2-ylmethyl)sulfanyl]-4-(5-methylfuran-2-yl)pyridine-3,5-dicarbonitrile] |
| 8.85 ± 0.82 | 81 ± 7 | – | 36 | 12.5 ± 1.3 | 230 °C (dec.) | 26 | – | – | – | N#Cc1c(N)nc(SCc2ncc[nH]2)c(C#N)c1-c1ccncc1 [Compound 7, 2-Amino-6-[(1H-imidazol-2-ylmethyl)sulfanyl]-4,4′-bipyridine-3,5-dicarbonitrile] |
| 5.26 ± 0.48 | 463 ± 38 | – | 58 | 63 ± 5 | 244 to 245 °C (dec.) | 19 | – | – | – | N#Cc1c(N)nc(SCc2ncc[nH]2)c(C#N)c1-c1cccnc1 [Compound 8, 2′-Amino-6′-[(1H-imidazol-2-ylmethyl)sulfanyl]-3,4′-bipyridine-3′,5′-dicarbonitrile] |
| 2.71 ± 0.18 | 377 ± 32 | 798 ± 72 | 7 | > 1000 | 232 to 233 °C | – | – | – | – | COc1ccc(-c2c(C#N)c(N)nc(SCc3ncc[nH]3)c2C#N)cn1 [Compound 9, 2′-Amino-6′-[(1H-imidazol-2-ylmethyl)sulfanyl]-6-methoxy-3,4′-bipyridine-3′,5′-dicarbonitrile] |
| 1.01 ± 0.09 | 55 ± 6 | 221 ± 20 | 47 | 3.15 ± 0.29 | 239 to 241 °C (dec.) | – | – | – | – | N#Cc1c(N)nc(SCc2ncc[nH]2)c(C#N)c1-c1ccsc1 [Compound 6, 2-Amino-6-[(1H-imidazol-2-ylmethyl)sulfanyl]-4-(thiophen-3-yl)pyridine-3,5-dicarbonitrile] |
| 0.77 ± 0.09 | 37 ± 3 | 274 ± 23 | 42 | 2.32 ± 0.21 | – | – | – | – | – | N#Cc1c(N)nc(SCc2ncc[nH]2)c(C#N)c1-c1ccoc1 [Compound 4, 2-Amino-4-(furan-3-yl)-6-[(1H-imidazol-2-ylmethyl)sulfanyl]pyridine-3,5-dicarbonitrile] |
